A short description of data set [1]: Solubility of compound in cell medium at 20 uM at 37 degC after 24 hrs. It counts as physicochemical.
Data set [2] relates to Pseudomonas aeruginosa. The data set can be described thus: Antimicrobial activity against Pseudomonas aeruginosa CIP 82.118 after 18 to 24 hrs by broth microdilution method. Format: functional.
In data set [3] the test system is Mycobacterium tuberculosis. The data set is described as follows: Antimycobacterial activity against Mycobacterium tuberculosis H37Rv after 6 days by MTT colorimetric microassay. To be noted: 144 h. It counts as functional, organism-based.
Data set [4] has as its system Enterococcus hirae. The data set is described as follows: Antimicrobial activity against Enterococcus hirae CIP 5855 after 18 to 24 hrs by broth microdilution method. It counts as functional.
The test system of data set [5] is Escherichia coli. The data set can be described thus: Antimicrobial activity against Escherichia coli CIP 53126 after 18 to 24 hrs by broth microdilution method. It counts as functional.
For data set [6], the system named is Mycobacterium tuberculosis. The data set is described as follows: Antimycobacterial activity against Mycobacterium tuberculosis H37Rv assessed as growth inhibition at 10 uM after 6 days by MTT colorimetric microassay. The settings on record: 144 h, read-out: GI. Format: functional.
Data set [7] relates to Mycobacterium tuberculosis. The data set can be described thus: Antimycobacterial activity against Mycobacterium tuberculosis H37Rv assessed as growth inhibition at 0.1 uM after 6 days by MTT colorimetric microassay. It counts as functional, organism-based.
Data set [8] has as its system Staphylococcus aureus. The data set can be described thus: Antimicrobial activity against Staphylococcus aureus CIP 4.83 after 18 to 24 hrs by broth microdilution method. Format: functional.
The subject of data set [9] is Mycobacterium tuberculosis. The data set is described as follows: Antimycobacterial activity against Mycobacterium tuberculosis H37Rv assessed as growth inhibition at 1 uM after 6 days by MTT colorimetric microassay. It counts as functional. The settings on record: 144 h, read-out: GI.
The test system of data set [10] is MCF7. The data set can be described thus: Antiproliferative activity against human MCF7 cells after 120 hrs by MTT asasy. Format: functional, cell-based. The settings on record: MCF7, 120 h.
For data set [11], the system named is PC-3. The data set can be described thus: Antiproliferative activity against human PC3 cells after 120 hrs by MTT asasy. It counts as functional, cell-based. The settings on record: PC-3, 120 h.
Data set [12] relates to A549. The data set can be described thus: Antiproliferative activity against human A549 cells after 120 hrs by MTT asasy. Format: functional, cell-based. The settings on record: A549, 120 h.
Data set [13] is described as follows: Antiproliferative activity against human U373MG cells after 120 hrs by MTT asasy. It counts as functional, cell-based, U-373MG ATCC. To be noted: U373 MG.
Data set [14] deals with Staphylococcus aureus. The data set is described as follows: Antimicrobial activity against multidrug-resistant Staphylococcus aureus isolate 2 after 18 to 24 hrs by broth microdilution method. Format: functional.
Data set [15] concerns Staphylococcus aureus. The data set is described as follows: Antimicrobial activity against methicillin-resistant Staphylococcus aureus ATCC 33591 after 18 to 24 hrs by broth microdilution method. It counts as functional.
Data set [16] deals with Staphylococcus aureus. The data set can be described thus: Ratio of ciprofloxacin MIC to compound MIC for multidrug-resistant Staphylococcus aureus isolate 1. It counts as functional.
The test system of data set [17] is Staphylococcus aureus. The data set can be described thus: Antimicrobial activity against multidrug-resistant Staphylococcus aureus isolate 1 after 18 to 24 hrs by broth microdilution method. It counts as functional.
Data set [18] deals with Staphylococcus aureus. The data set can be described thus: Ratio of ciprofloxacin MIC to compound MIC for multidrug-resistant Staphylococcus aureus isolate 2. It counts as functional.
The subject of data set [19] is Staphylococcus aureus. The data set can be described thus: Antimicrobial activity against methicillin-resistant Staphylococcus aureus ATCC 33592 after 18 to 24 hrs by broth microdilution method. It counts as functional.
Data set [20] relates to Staphylococcus aureus. The data set is described as follows: Ratio of ciprofloxacin MIC to compound MIC for methicillin-resistant Staphylococcus aureus ATCC 33592. It counts as functional.
The subject of data set [21] is LoVo. The data set can be described thus: Antiproliferative activity against human LoVo cells after 120 hrs by MTT asasy. Format: functional, cell-based.

Structures are written as SMILES. Converted amounts (≈) assume the structure as drawn. The source made the active and inactive calls. How the calls were made is not given here. Bounds are passed on as bounds.

`C[C@H]1COc2c(N3CCN(C)CC3)c(F)cc3c(=O)c(C(=O)NCCCCCCCCCCCCNC(=O)c4cn5c6c(c(N7CCN(C)CC7)c(F)cc6c4=O)OC[C@@H]5C)cn1c23`: the solubility result in data set [1] is on record as “Insoluble”. Moreover, the MBC is 31.2 µM (≈ 27.7 µg/mL) in data set [2], 3.9 µM (≈ 3.46 µg/mL) in data set [4], no more than 0.97 µM in [5] and 1.9 µM (≈ 1.69 µg/mL) in [8]. The MIC in data set [2] was 31.2 µM (≈ 27.7 µg/mL); in [3], 5 µM (≈ 4.44 µg/mL); in data set [4], 3.9 µM (≈ 3.46 µg/mL); in [5], no more than 0.97 µM; in data set [8], 1.9 µM (≈ 1.69 µg/mL). Moreover, in data set [3], it took 2.1 µM to reach half-maximal inhibition (IC50). The inhibition of growth at 10 µM in data set [6] came out at 60%. Besides, in data set [7], the “growth inhibition (GI)” value was “inactive”.
For `C[C@H]1COc2c(N3CCN(C)CC3)c(F)cc3c(=O)c(C(=O)O)cn1c23` [LEVOFLOXACIN], the inhibition of growth at 1 µM in data set [9] was determined as 85%. The MBC in [2] is no more than 0.97 µM; in data set [4] it was 1.9 µM (≈ 0.687 µg/mL); in data set [5], no more than 0.97 µM; in data set [8], no more than 0.97 µM. In addition, the MIC was no more than 0.97 µM in data set [2]; 2.5 µM (≈ 0.903 µg/mL) in data set [3]; no more than 0.97 µM in data set [4]; no more than 0.97 µM in data set [5]; no more than 0.97 µM in [8]. Also, the IC50 in data set [3] was found to be 0.8 µM; in data set [10], 67 µM; in data set [11] it was 67 µM; in [12] it was 67 µM; in [13] it was 67 µM. Moreover, in [6], the inhibition of growth at 10 µM turned out to be 96%. For the same compound, in data set [7], the “growth inhibition (GI)” value is “inactive”.
With `C[C@H]1COc2c(N3CCN(C)CC3)c(F)cc3c(=O)c(C(=O)NCCCCCCCCCCNC(=O)c4cn5c6c(c(N7CCN(C)CC7)c(F)cc6c4=O)OC[C@@H]5C)cn1c23`, the solubility entry in [1] is “Insoluble”. Besides, the MBC is 62.5 µM (≈ 53.7 µg/mL) in data set [2], 62.5 µM (≈ 53.7 µg/mL) in [4], no more than 0.97 µM in data set [5] and 7.8 µM (≈ 6.7 µg/mL) in data set [8]. The MIC is 31.2 µM (≈ 26.8 µg/mL) in data set [2]; 5 µM (≈ 4.3 µg/mL) in data set [3]; 31.2 µM (≈ 26.8 µg/mL) in data set [4]; no more than 0.97 µM in data set [5]; 7.8 µM (≈ 6.7 µg/mL) in data set [8]. The IC50 in data set [3] came to 2.4 µM. Moreover, the inhibition of growth at 10 µM in [6] turned out to be 60%. Also, in [7], the “growth inhibition (GI)” value is “inactive”.
`CCCCCC(=O)OCC(=O)N1CCN(c2cc3c(cc2F)c(=O)c(C(=O)O)cn3C2CC2)CC1`: the MBC in data set [14] was 15.6 µM (≈ 7.61 µg/mL); in data set [2], 250 µM (≈ 122 µg/mL); in data set [15] it was 0.06 µM (≈ 0.0293 µg/mL); in data set [17] it was 500 µM (≈ 244 µg/mL); in data set [4], no more than 0.97 µM; in data set [5], 31.2 µM (≈ 15.2 µg/mL). For the same compound, in data set [8], the MBC is no more than 0.24 µM. For the same compound, the MIC in data set [14] was 7.8 µM (≈ 3.8 µg/mL); in data set [2] it was 62.5 µM (≈ 30.5 µg/mL); in [15], 0.03 µM (≈ 0.0146 µg/mL); in data set [17], 15.6 µM (≈ 7.61 µg/mL); in data set [4] it was no more than 0.97 µM; in [5] it was 31.2 µM (≈ 15.2 µg/mL). Further, the MIC in data set [8] is no more than 0.03 µM. The Ratio in [16] and in data set [18] was 2 each time. Moreover, in data set [6], the inhibition of growth at 10 µM is greater than 95%. In [7], the “growth inhibition (GI)” value is “inactive”.
Regarding `CCCCOC(=O)N1CCN(c2cc3c(cc2F)c(=O)c(C(=O)O)cn3C2CC2)CC1`, the MBC was determined as 31.2 µM (≈ 13.5 µg/mL) in data set [14]; 250 µM (≈ 108 µg/mL) in [2]; 0.12 µM (≈ 0.0518 µg/mL) in [15]; 0.12 µM (≈ 0.0518 µg/mL) in data set [19]; 500 µM (≈ 216 µg/mL) in data set [17]; 7.8 µM (≈ 3.37 µg/mL) in [4]. Besides, the MBC in data set [5] was 31.2 µM (≈ 13.5 µg/mL); in data set [8], no more than 0.12 µM. In addition, the MIC is 31.2 µM (≈ 13.5 µg/mL) in [14]; 62.5 µM (≈ 27 µg/mL) in data set [2]; 0.03 µM (≈ 0.0129 µg/mL) in data set [15]; 62.5 µM (≈ 27 µg/mL) in [17]; 3.9 µM (≈ 1.68 µg/mL) in data set [4]; 7.8 µM (≈ 3.37 µg/mL) in data set [5]. Further, the MIC in data set [8] was no more than 0.06 µM. Also, in [20], the Ratio was 63. For the same compound, the “growth inhibition (GI)” value in data set [7] is “inactive”. The IC50 in [13] turned out to be 31 µM.
In the case of `C[C@H]1COc2c(N3CCN(C)CC3)c(F)cc3c(=O)c(C(=O)NCCCCCCCCCNC(=O)c4cn5c6c(c(N7CCN(C)CC7)c(F)cc6c4=O)OC[C@@H]5C)cn1c23`, the inhibition of growth at 1 µM in data set [9] was found to be 20%. Moreover, the solubility result in data set [1] is listed as “soluble”. The MBC in data set [2] amounted to 250 µM (≈ 211 µg/mL); in data set [4] it was 31.2 µM (≈ 26.4 µg/mL); in [5], 3.9 µM (≈ 3.3 µg/mL); in data set [8], 31.2 µM (≈ 26.4 µg/mL). Moreover, the minimal inhibitory concentration (MIC) in [2] was found to be 62.5 µM (≈ 52.8 µg/mL); in [3] it was 5 µM (≈ 4.23 µg/mL); in [4] it was 31.2 µM (≈ 26.4 µg/mL); in data set [5], 3.9 µM (≈ 3.3 µg/mL); in data set [8] it was 31.2 µM (≈ 26.4 µg/mL). Further, the IC50 turned out to be 2.5 µM in data set [3]; 0.2 µM in data set [10]; 0.2 µM in [11]; 0.2 µM in [12]; 0.2 µM in data set [13]; 0.2 µM in data set [21]. Moreover, in data set [6], the inhibition of growth at 10 µM was 60%. In addition, in data set [7], the “growth inhibition (GI)” value was “inactive”.
In the case of `O=C(O)c1cn(C2CC2)c2cc(N3CCN(C(=O)CCCCCCCCCCCCCC(=O)N4CCN(c5cc6c(cc5F)c(=O)c(C(=O)O)cn6C5CC5)CC4)CC3)c(F)cc2c1=O`, the MBC was 31.2 µM (≈ 28.1 µg/mL) in data set [14]; 250 µM (≈ 225 µg/mL) in data set [2]; 0.97 µM (≈ 0.872 µg/mL) in data set [15]; 0.48 µM (≈ 0.432 µg/mL) in [19]; 500 µM (≈ 450 µg/mL) in [17]; 500 µM (≈ 450 µg/mL) in data set [4]. Besides, the MBC in [5] is 500 µM (≈ 450 µg/mL); in data set [8], 1.9 µM (≈ 1.71 µg/mL). For the same compound, the MIC is 15.6 µM (≈ 14 µg/mL) in data set [14]; 62.5 µM (≈ 56.2 µg/mL) in [2]; 0.06 µM (≈ 0.0539 µg/mL) in [15]; 0.06 µM (≈ 0.0539 µg/mL) in [19]; 1.9 µM (≈ 1.71 µg/mL) in data set [17]; 125 µM (≈ 112 µg/mL) in data set [4]. In addition, the MIC is 62.5 µM (≈ 56.2 µg/mL) in data set [5] and no more than 0.06 µM in data set [8]. For the same compound, the Ratio in [20] is on record as 8. Besides, the inhibition of growth at 10 µM in data set [6] was 40%. The “growth inhibition (GI)” value in data set [7] was “inactive”.

The values above are taken from ChEMBL document CHEMBL1914411, “Synthesis of lipophilic dimeric C-7/C-7-linked ciprofloxacin and C-6/C-6-linked levofloxacin derivatives. Versatile in vitro biological evaluations of monomeric and dimeric fluoroquinolone derivatives as potential antitumor, antibacterial or antimycobacterial agents” (Eur J Med Chem, 2011).
